# Laboratory results: US9440966B2, “Compounds for treatment of metabolic syndrome” (SJT MOLECULAR RESEARCH, S.L., priority 2011, dated 2016)
# “Also recorded” adds a separate entry of the source.
# What was measured:
# [1] = test system: Drosophila melanogaster (Oregon-R strain); experiment: Toxicology study: larva-to-adult viability and development time; settings: in vivo
# Text: The purpose of this study was to test and compare the potential toxic effects of compounds 5a, 6a and 7a on the larva-to-adult viability and development time in a Drosophila melanogaster (Oregon-R) flies. These studies have a relevant predictive role with the aim to anticipate possible adverse toxicological effects that may happen during preclinical studies with animal, preferably mammals. In addition, the data provided are highly quantitative.
# Drosophila melanogaster (Oregon-R) flies were obtained by the University of the Balearic Islands (Spain). […] The larvae were seeded on standard food supplemented with the appropriate dose of compounds tested. Each compound was tested at 1, 10, 100, 1000 and 2000 μg/ml dissolved in standard food.
# Fly adults were transferred from the serial transfer system to bottles with fresh food for 24 h. Adults 5 days old were placed on egg collecting devices (layers) containing a mixture of agar, water, acetic acid, and ethyl alcohol, with a drop of active yeast on it. Every 2 h., the layer glasses were changed, in this way, the eggs of a glass have similar age, with a maximum difference of 2 h. among them. The glasses of the layers were kept at 25° C. for at least 22 h. in Petri dishes until larvae hatched. Fifty larvae were picked with a lancet under a stereoscopic microscope and were seeded into 10×2 cm vials with 5 ml food. Vials were supplemented with 4a, 5a and 7a at 1, 10 and 100 μg/ml. As positive control we used cupric acetate (toxic) at 350 μg/ml.
# The number of adult flies which emerged from each vial was counted daily until the exhaustion of the culture. The parameters studied were the larvae-to-adult viability (V) and development time.
# Viability is expressed as V=NA/NL, where NL is the input number of larvae ([…] in our case) and NA the output number of adults emerging from these NL larvae. Development time was measured in days by the formula DT=ΣNidi/ΣNi where Ni is the number of flies emerging on the day di after the larvae were placed in the medium.
# The data are expressed as the mean±SEM values from 3 independent experiments involving triplicate vials at the number of flies indicated.
# normoglycemic rats [2] = experiment: Oral glucose tolerance test in normoglycemic rats (Examples 27, 28); type: in vivo, Male Wistar rats
# Experimental: (§1) Male Wistar rats were utilized provided by Mato Grosso do Sul's Federal University's Biotherium. Until the experiments were carried out, the animals have had free access to feed and water. The room temperature was kept at 22±2° C. and the light/dark cycle was of 12 hours.
# The glucose tolerance test is a reference method for the diagnosis of diabetes or glucose intolerance (5).
# Distinct rat groups were orally treated, once a day, with 3-(carbohydrazyl-N′-phenylsubstituted)-1-benzosubstituted-β-carbolinic-3-carbohydrazide (compound 7a or ANIS-BZ) at doses: 0.5, 1 or 5 mg/kg or vehicle (control) for 3 days. Similarly, another rat group received metformin (reference drug used for lowering glucose serum levels) in a 300 mg/kg dose, orally, once a day for 3 days. The oral glucose tolerance test was carried out by administering of a glucose solution (2 g/kg body mass). Glycemia was determined at zero time (before oral administering) and at 60 minutes after the glucose overload.
# Distinct groups of rats were treated orally, once a day, with N(-ethylamine)-1-benzosubstituted-β-carboline-3-carboxamide (compound 4a or ANIS-NH2) at doses: 0.5, 1 or 5 mg/kg, or vehicle for 3 days. Similarly, another group of rats received metformin in a 300 mg/kg dose orally for 3 days once a day. The oral glucose tolerance test was done under the administration of a glucose solution (2 g/kg body mass). Glycemia will be determined at the zero (before oral administration) time and 60 minutes after glucose overload.
# SHR hypertensive rats [3] = experiment: Plasma cholesterol levels test in SHR hypertensive rats; type: in vivo, Male SHR
# Experimental: (§2) Distinct rat groups were orally treated, once a day, with 5 mg/kg of compounds 4a or 5a or 6a during the first 4 days, 10 mg/kg during the next 4 days and 15 mg/kg until the end of the treatment period or vehicle (control) for the same days. Similarly, another rat group received metformin (MET) (reference drug used for lowering glucose serum levels) in a 300 mg/kg dose, orally, from day 1 to the end of the treatment. Plasma cholesterol levels were measured in triplicate 12 hours after drug administration by the cholesterol oxidase/peroxidase method (BioSystems S.A, Barcelona, Spain). Blood samples were obtained by femoral vein punction. This method was chosen because of its noninvasive character, enabling daily measurements with the same rats throughout the entire treatment.
# (§3) Male SHR were provided by Charles River Laboratories (USA). Until the experiments were carried out, the animals have had free access to feed and water. The room temperature was kept at 22±2° C. and the light/dark cycle was of 12 hours. All procedures were submitted to the Animal Experimentation Ethics Committee.
# as §2, with “metformin” for “metformin (MET)”, “Blood pressure was” for “Plasma cholesterol levels were”, “4” for “12”, “administration in warmed warmed, restrained, conscious rats” for “administration”, “tail-cuff” for “cholesterol oxidase/peroxidase”, “with a computerized oscillometric system recorder (Nyprem, Cibertec).” for “(BioSystems S.A, Barcelona, Spain). Blood samples were obtained by femoral vein punction.”
# SHR hypertensive rats [4] = experiment: Plasma triglyceride levels test in SHR hypertensive rats; type: in vivo, Male SHR; settings: 25 days of treatment (5-15 mg/Kg) oral
# Experimental: as §3
# as §2, with “of compound” for “of compounds”, “4a” for “4a or 5a or 6a”, “metformin” for “metformin (MET)”, “Plasma triglyceride” for “Plasma cholesterol”, “the glycerol phosphate” for “the cholesterol”
# SHR hypertensive rats [5] = experiment: Blood glucose levels test in SHR hypertensive rats; type: in vivo, Male SHR
# Experimental: as §3, with “The food was removed 12 h before glucose determination. The” for “The”
# Distinct rat groups were orally treated, once a day, with 5 mg/kg of compound 4a during the first 4 days, 10 mg/kg during the next 4 days and 15 mg/kg until the end of the treatment period or vehicle (control) for the same days. Similarly, another rat group received metformin in a 300 mg/kg dose, orally, from day 1 to the end of the treatment. Blood glucose levels were measured in triplicate 12 hours after drug administration with the aid of a GLUCOCARD TM G meter, GT-1810. Results were compared with the effect of metformin […]. Blood samples were obtained by femoral vein punction. This method was chosen because of its noninvasive character, enabling daily measurements with the same rats throughout the entire treatment.
# female Swiss mice = experiment: Acute oral toxicology study in a mice model; type: in vivo; settings: oral 2000 mg/kg single dose, observation for 14 days
# Experimental: The experiments were conducted using female Swiss mice (20-30 g), housed under a 12-h light-dark cycle, with controlled humidity (60-80%), and temperature (22±1° C.). Food and water were freely available to the mice.
# Female mice (n=6) were orally (2000 mg/kg) administered with a single dose of 4a, 5a, and 7a for the observation of acute signs of toxicity until 14 days. […] The observations comprised the behavior and manifestations of the toxic symptoms, and were carried out according to the Guidelines of the Organization for Economic Cooperation and Development (OECD, 2008).
# All compounds were dissolved in sterile saline and were administered by oral gavage to mice based in the weight, for example 20 g received 20 μL.
# The data are expressed as mean±S.E.M. of experiments. Statistical significance was determined through one-way analysis of variances (ANOVA), followed by either Newman-Keuls test. A p<0.05 was considered statistically significant. Graphs were drawn and statistical analysis was carried out using GraphPad Prism version 5.00 for Windows (GraphPad Software, San Diego, Calif., USA).
# SHR hypertensive rats [6] = experiment: Systolic blood pressure test in SHR hypertensive rats; type: in vivo, Male Spontaneously Hypertensive Rats (SHR); settings: metformin 300 mg/kg oral
# Experimental: as §3, with “Spontaneously Hypertensive Rats (SHR)” for “SHR”
# as §2, with “Blood samples were obtained by femoral vein punction. This method was chosen because of its noninvasive character, enabling daily measurements with the same rats throughout the entire treatment.” left out
# Distinct rat groups were orally treated, once a day, with 5 mg/kg of compounds 4a or 5a or 6a during the first 4 days, 10 mg/kg during the next 4 days and 15 mg/kg until the end of the treatment period or vehicle (control) for the same days. […] Blood pressure was measured in triplicate 4 hours after drug administration in warmed warmed, restrained, conscious rats by the tail-cuff method with a computerized oscillometric system recorder (Nyprem, Cibertec). […]
# normoglycemic rats [7] = experiment: Oral glucose tolerance test in normoglycemic rats (Examples 36, 37); type: in vivo, Male Wistar rats; settings: metformin 300 mg/kg orally daily
# Experimental: as §1, with “rats (200-300 g)” for “rats”, “C. with controlled humidity (60-80%)” for “C.”
# The glucose tolerance test was evaluated as described by Al-Awaki et al (6).
# Rats were randomly divided into […] groups of four animals that were control group that received only a solution of saline, compound 23b group (10 mg/kg), compound 21a group (10 mg/kg) and metformin 300 mg/kg group. Respective treatments were made orally and daily for five days.
# (§4) On day 1, 3, and 5, different groups of rats were fasted overnight (at least 12 h) prior to the test, but with given water ad libitum. The oral glucose tolerance test was carried out by administering of a glucose solution (2 g/kg body weight) according to Al-Awadi et al (6). Glycemia was determined in blood samples collected from the tail vein at −30 minutes (just before the administration of the oral extract) time 0 (prior to the glucose overload) and at 60 minutes after the glucose overload. Serum glucose concentrations were measured by the glucose oxidase method (7) using commercial kit (Accuchek-performa (Roche)) according to the manufacture's instructions.
# as §1, with “rats (200-300 g)” for “rats”, “C. with controlled humidity (60-80%)” for “C.”, “hours. All procedures were submitted to the Animal Experimentation Ethics Committee.” for “hours.”
# The compounds 21b, 23a and 23d were diluted firstly in 20 μl of ethanol and after in 980 μl de saline. Compounds 21e, 23e and 26b were dissolved in sterile saline and were administered by oral gavage to rats based in the weight, for example 200 g received 200 μL.
# 54 rats were randomly divided into […] groups of five-eight animals that were control group (n=8) that received only a solution of vehicle, compound 21b group (n=5) (10 mg/kg), compound 21e group (n=5) (10 mg/kg), compound 23e group (n=5) (10 mg/kg), compound 23a group (n=5) (10 mg/kg), compound 23d group (n=5) (10 mg/kg), compound 26b group (n=5) (10 mg/kg) and metformin (n=6) 300 mg/kg group. Respective treatments were made orally and daily for five days.
# as §4, with “manufactures's” for “manufacture's”
Compound,larvae-to-adult viability and development time [1],"glycemic levels of animals that received an oral glucose overload (normoglycemic rats [2]; after 3 days, 0.5 mg/kg oral once a day, vs control group)","glycemic levels of animals that received an oral glucose overload (normoglycemic rats [2]; after 3 days, 1 mg/kg oral once a day, vs control group)","glycemic levels of animals that received an oral glucose overload (normoglycemic rats [2]; after 3 days, 5 mg/kg oral once a day, vs control group, 5 mg/kg)","glycemic levels of animals that received an oral glucose overload (normoglycemic rats [2]; first day, 5 mg/kg oral, vs control group, 60 min after glucose 2 g/kg)","plasma cholesterol levels (SHR hypertensive rats [3]; 25 days of treatment (15 mg/Kg) oral, effect more pronounced for 5a and 7a)",plasma triglyceride levels (SHR hypertensive rats [4]),"blood glucose decrease compared to the vehicle-control group (SHR hypertensive rats [5]; doses from 5 to 15 mg/kg oral, treatment periods of 4-15 days)",mortality or behavioral disorders (acute signs of toxicity) (female Swiss mice),"glycemic levels of animals that received an oral glucose overload (normoglycemic rats [2]; after 3 days, metformin 300 mg/kg oral once a day)","glycemic levels of animals that received an oral glucose overload (normoglycemic rats [2]; first day, metformin 300 mg/kg oral)","plasma cholesterol levels (SHR hypertensive rats [3]; 25 days, Metformin 300 mg/Kg oral)",inhibitory effect on systolic blood pressure (SHR hypertensive rats [6]),glucose levels in oral glucose tolerance test (normoglycemic rats [7]; fifth day),glucose levels in oral glucose tolerance test (normoglycemic rats [7]; first day),glucose levels in oral glucose tolerance test (normoglycemic rats [7]; third day),effect on blood glucose levels (SHR hypertensive rats [5]; Metformin 300 mg/kg for 23 days)
"COc1ccc(-c2nc(C(=O)NCCN)cc3c2[nH]c2ccccc23)cc1 [Compound 4a, N(-ethylamine)-1-benzosubstituted-β-carboline-3-carboxamide]",not affected,only the 1 and 5 mg/kg doses reduced statistically significant the glycemic levels,reduced statistically significant the glycemic levels,reduces the glycemic levels; also recorded: reduced statistically significant the glycemic levels,reduces the glycemic levels,inhibition of plasma cholesterol levels,"statistically significant (p<0.05), inhibition of plasma triglyceride levels",5-7%,did not produce mortality or any behavioral disorders,,,,,,,,
"CN(C)C(=N)N=C(N)N [metformin, reference compound]",,,,,,,,,,induces reduction of glycemic levels,induces reduction of glycemic levels,inhibition of plasma cholesterol levels,This effect at 5-15 mg/kg is greater than that of metformin,reduced the glucose levels,significant reduction in glucose levels,induces reduction of glycemic levels; also recorded: significant reduction in glucose levels,slightly greater effect on blood glucose levels
